Results published in ChEMBL document CHEMBL1201862, “PubChem BioAssay data set” (2004).
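Each compound was tested at five concentrations against cells in 96-well plates for 48 hours. The concentration for 50% growth inhibition is given as GI50.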 Active and inactive are the calls of the source. Rule as the data show it: active = GI50 up to about 1.1 µM and inactive = higher.

What was measured:
Assay in all cases: NCI tumour cell line growth inhibition, 48 h
[1] = tested on: SK-MEL-28
[2] = tested on: HT-29
[3] = tested on: ACHN
[4] = tested on: UO-31
[5] = tested on: LOX IMVI
[6] = tested on: COLO 205
[7] = tested on: DLD-1
[8] = tested on: DMS-273
[9] = tested on: NCI-H522
[10] = tested on: HCT-15
[11] = tested on: SN12C
[12] = tested on: SK-MEL-2
[13] = tested on: CAKI-1
[14] = tested on: SF-295
[15] = tested on: A498
[16] = tested on: SK-MEL-5
[17] = tested on: HOP-92
[18] = tested on: OVCAR-3
[19] = tested on: NCI-H460
[20] = tested on: HCC 2998
[21] = tested on: M19-MEL
[22] = tested on: U-251
[23] = tested on: XF498
[24] = tested on: SNB-75
[25] = tested on: KM12
[26] = tested on: A549
[27] = tested on: UACC-62
[28] = tested on: Malme-3M
[29] = tested on: EKVX
[30] = tested on: IGROV-1
[31] = tested on: K562
[32] = tested on: CCRF-CEM
[33] = tested on: OVCAR-8
[34] = tested on: SNB-19
[35] = tested on: SW-620
[36] = tested on: NCI-H23
[37] = tested on: 786-0
[38] = tested on: KM-20L2
[39] = tested on: OVCAR-5
[40] = tested on: HL-60
[41] = tested on: RPMI-8226
[42] = tested on: RXF 393
[43] = tested on: RXF 631
[44] = tested on: SK-OV-3
[45] = tested on: UACC-257
[46] = tested on: TK-10
[47] = tested on: HOP-18
[48] = tested on: MOLT-4
[49] = tested on: OVCAR-4
[50] = tested on: LXFL 529
[51] = tested on: SF-539
[52] = tested on: SF-268
[53] = tested on: M14
[54] = tested on: SNB-78

CCCCCCCCCCOC(=O)NCCC
GI50 [1]: 28.8 µM (inactive) | GI50 [2]: 21.4 µM (inactive) | GI50 [3]: 28.8 µM (inactive) | GI50 [4]: 16.2 µM (inactive) | GI50 [5]: 18.2 µM (inactive) | GI50 [6]: 40.5 µM (inactive) | GI50 [7]: 34.8 µM (inactive) | GI50 [8]: 20.6 µM (inactive) | GI50 [9]: 18.7 µM (inactive) | GI50 [10]: 21 µM | GI50 [11]: 28 µM (inactive) | GI50 [12]: 16.7 µM (inactive) | GI50 [13]: 35.5 µM (inactive) | GI50 [14]: 38.5 µM (inactive) | GI50 [15]: 31.7 µM (inactive) | GI50 [16]: 23.9 µM (inactive) | GI50 [17]: 11.6 µM (inactive) | GI50 [18]: 33.3 µM (inactive) | GI50 [19]: 25.8 µM (inactive) | GI50 [20]: 18.2 µM (inactive) | GI50 [21]: 34.5 µM (inactive) | GI50 [22]: 24.9 µM (inactive) | GI50 [23]: 18.2 µM (inactive) | GI50 [24]: 49.2 µM (inactive) | GI50 [25]: 36.1 µM (inactive) | GI50 [26]: 36.6 µM (inactive) | GI50 [27]: 38.5 µM (inactive) | GI50 [28]: 21.4 µM (inactive) | GI50 [29]: 25.9 µM (inactive) | GI50 [30]: 64.1 µM (inactive) | GI50 [31]: 29.9 µM (inactive) | GI50 [32]: 18.5 µM (inactive) | GI50 [33]: 30.5 µM (inactive) | GI50 [34]: 34.4 µM (inactive) | GI50 [35]: 48.6 µM (inactive) | GI50 [36]: 33.1 µM (inactive) | GI50 [37]: 28.1 µM (inactive) | GI50 [38]: 22.8 µM (inactive) | GI50 [39]: 24.4 µM (inactive) | GI50 [40]: 13.9 µM (inactive) | GI50 [41]: 17.9 µM (inactive) | GI50 [42]: 15.9 µM (inactive) | GI50 [43]: 27.6 µM (inactive) | GI50 [44]: 54.8 µM (inactive) | GI50 [45]: 30.2 µM (inactive) | GI50 [46]: 34.5 µM (inactive) | GI50 [47]: 26.7 µM (inactive) | GI50 [48]: 17.2 µM (inactive) | GI50 [49]: 21.6 µM (inactive) | GI50 [50]: 38 µM (inactive) | GI50 [51]: 59.7 µM (inactive) | GI50 [52]: 29.1 µM (inactive) | GI50 [53]: 29.4 µM (inactive)

NCCCNCCS [WR-1065]
GI50 [2]: > 100 µM (inactive) | GI50 [4]: > 100 µM (inactive) | GI50 [8]: > 100 µM (inactive) | GI50 [10]: > 100 µM | GI50 [11]: > 100 µM (inactive) | GI50 [12]: > 100 µM (inactive) | GI50 [13]: > 100 µM (inactive) | GI50 [14]: > 100 µM (inactive) | GI50 [16]: > 100 µM (inactive) | GI50 [17]: > 100 µM (inactive) | GI50 [20]: > 100 µM (inactive) | GI50 [22]: > 100 µM (inactive) | GI50 [23]: > 100 µM (inactive) | GI50 [25]: > 100 µM (inactive) | GI50 [26]: > 100 µM (inactive) | GI50 [27]: > 100 µM (inactive) | GI50 [29]: > 100 µM (inactive) | GI50 [31]: > 100 µM (inactive) | GI50 [33]: > 100 µM (inactive) | GI50 [34]: > 100 µM (inactive) | GI50 [54]: > 100 µM (inactive) | GI50 [38]: > 100 µM (inactive) | GI50 [39]: > 100 µM (inactive) | GI50 [40]: > 100 µM (inactive) | GI50 [42]: > 100 µM (inactive) | GI50 [43]: > 100 µM (inactive) | GI50 [44]: > 100 µM (inactive) | GI50 [45]: > 100 µM (inactive) | GI50 [46]: > 100 µM (inactive) | GI50 [47]: > 100 µM (inactive) | GI50 [48]: > 100 µM (inactive) | GI50 [49]: > 100 µM (inactive) | GI50 [50]: > 100 µM (inactive) | GI50 [52]: > 100 µM (inactive) | GI50 [53]: > 100 µM (inactive)
